Patent publication US20130184316A1, “METHODS FOR DIAGNOSING AND TREATING CONCUSSIVE DISORDERS” (priority 2010, published 2013)

What was measured:
subject with PCS [1] = experiment: Balance and mobility assessed by Hi-Mat test; assay type: in vivo, human
Protocol: (§1) A single subject, prospective, double blind, placebo controlled trial of 4AP was then conducted in this individual. IRB approvals were obtained from all participating institutions and Subject gave written informed consent for all parts of the study. After a 4-week medication washout period, the Subject was randomly assigned a week's course of placebo, followed by a weeklong medication washout period, followed by another week on 4-AP (10 mg twice daily). Based on the medication half-life, a one week washout period was presumed to be sufficient. Subject and assessors were blinded to treatment allocation.
(§2) Measurements conducted at identical times at baseline and on each of the subsequent 3 weeks of the study included: • Balance and mobility assessed by Hi-Mat test (Arch. Phys. Med. Rehabil. 2006, 87(3), 437-442; hereby incorporated by reference in its entirety). • Subjective symptom assessment using the Rivermead Post-Concussion Questionnaire (Clin. Rehabil. 2005, 19(8), 878-887; hereby incorporated by reference in its entirety). • Neuropsychological assessment, consisting of the digit span and cancellation tests from the Wechsler Adult Intelligence Scale, 4th edition (Coalson, D. L., Engi-Raiford, S. Wechsler Adult Intelligence Scale, 4th Ed., in Technical and Interpretive Manual, 4th Ed., San Antonio: Pearson (2008); hereby incorporated by reference in its entirety), the California Verbal Learning Test II (CVLT) (Delis, D. C., Kramer, J. H., Kaplan, E., Ober, B. A. in CVLT-II Manual, San Antonio: The Psychological Corporation (2000); hereby incorporated by reference in its entirety), the Verbal Fluency Test (Connors Continuous Performance Test Computer II Program Version 5 Users Manual, Toronto: Multi-Health Systems, Inc. (2002); hereby incorporated by reference in its entirety), and the Connors Continuous Performance Test (J. Nervous Ment. Dis. 1985, 173(6), 353-357; hereby incorporated by reference in its entirety). • Videonystagmography (VNG) and rotary chair (RC) vestibular testing […]

subject with PCS [2] = experiment: Single subject double blind placebo controlled trial of 4AP with open-label rounds, overall findings; assay type: in vivo, human
Protocol: as §1, §2

subject with PCS [3] = experiment: Neurofeedback evaluation; assay type: in vivo, human; conditions: following treatment of 4AP
[4] = tested on: multiple sclerosis patients; conditions: orally administered, over a period of days, literature; cited from earlier work
subject with PCS [5] = experiment: Empiric clinical trial of 4AP, reported symptoms and side effects; assay type: in vivo, human
Description: The study Subject had persisting stress-induced episodes of weakness and dysequilibrium, along with DBN. A crude phenomenological similarity of these symptoms to EA2 was noted. DNA sequencing of Subject's CACNA1A gene was done; no abnormality was found. Given intractable, persisting, and incapacitating nature of Subject's symptoms and the absence of any therapeutic alternatives, an empiric clinical trial of 4AP was agreed upon. Given subject's history of nephrolithiasis, it was felt that 4AP would be less likely to cause significant adverse reactions than acetazolamide. Subject provided written informed consent.
The Subject was treated by oral administration of 4-AP, starting with a minimal dose of 5 mg. […] Treatment continued for about six months, at which point a wash-out period was initiated.
Side effects (initial blurring of vision, insomnia, and dyspepsia) were mild. Given these clinical results, a prospective, double blind case study was performed.

[6] = tested on: cerebellar Purkinje cells; conditions: in vitro, literature; cited from earlier work
[7] = tested on: EA2 mutant Purkinje cells; conditions: literature (J. Neurosci. 2010), cited from earlier work
subject with PCS [8] = experiment: Subjective symptom assessment, Rivermead Post-Concussion Questionnaire; assay type: in vivo, human
Protocol: as §1, §2

subject with PCS [9] = experiment: Abbreviated Abnormal Involuntary Movement Scale (AIMS), blinded raters of video recordings; assay type: in vivo, human
Description: During testing sessions, study personnel noted relapse of paroxysmal grimacing, weakness, sialorrhea, slurred speech, and slowed responses that the Subject had experienced prior to starting 4AP. In an effort to corroborate the presence of abnormal movements, video recordings of identical testing segments were reviewed by raters, physical, occupational, and speech therapists all with experience working with TBI. Raters were blinded to subject history and study variables. Absent any established rating scales for the unusual phenomenon observed, an abbreviated version of the Abnormal Involuntary Movement Scale (AIMS) was used (Prog. Brain Res. 2007, 161, 327-338; hereby incorporated by reference in its entirety).

subject with PCS [10] = experiment: Neuro-optometric evaluation; assay type: in vivo, human; conditions: following treatment of 4AP
[11] = tested on: patients with type-2 episodic ataxia (EA2); conditions: literature reports; cited from earlier work
[12] = two open phases, extended medication use

Nc1ccncc1 [4-AP, 4-Amino pyridine]
HiMat score (subject with PCS [1]; session 4 Active: blinded, one week on 4-AP 10 mg twice daily, baseline 18, placebo 28, washout 28): 31 | HiMat score (subject with PCS [1]; session 5 1st Open: open-label 4AP 10 mg twice daily, 5 weeks after conclusion of the formal study): 32 | HiMat score (subject with PCS [1]; session 6 2nd Open: open-label 4AP 10 mg twice daily, 9 weeks after conclusion of the formal study): 50 | Balance/mobility, symptoms and neuropsychological evaluations (subject with PCS [2]; active phase compared with the other blinded phases (baseline, placebo, washout)): similar | Balance/mobility and subjective symptoms (subject with PCS [2]; [12]): improvement | Cancellation and CVLT: cognitive processing speed and auditory memory (subject with PCS [2]; [12]): improved | Neurofeedback parameters (neurosynchronization, restoration of brain activity) (subject with PCS [3]): dramatic and unexpected improvements | Restoring nerve impulse transmission [4]: mild to moderate improvements | Side effects (initial blurring of vision, insomnia, and dyspepsia) (subject with PCS [5]; 10 mg twice daily): mild | Symptoms reported by the Subject (subject with PCS [5]; 10 mg twice daily): significant reduction in all symptoms | Symptoms reported by the Subject (subject with PCS [5]; oral, doses increased to 30 mg per day, lasted for the duration of treatment (about six months)): dramatic improvement in symptoms | Adverse effects observed or reported within 3 hours of administration (subject with PCS [5]; oral, minimal starting dose of 5 mg): No visible adverse effects | Symptom intensity after termination of 4-AP treatment (subject with PCS [5]; wash-out after about six months of treatment): rapid relapse of symptom intensity | Excitability of cerebellar Purkinje cells [6]: increase the excitability | Purkinje cell excitability, spontaneous activity or firing rate ([7]; models of episodic ataxia): does not increase | Functional consequence of treatment in EA2 mutant Purkinje cells ([7]; via blockage of potassium channels): restoration of the precision of pacemaking | Rivermead score (subject with PCS [8]; session 4 Active: blinded, one week on 4-AP 10 mg twice daily, baseline 43, placebo 24, washout 44): 41 | Rivermead score (subject with PCS [8]; session 5 1st Open: open-label 4AP 10 mg twice daily, 5 weeks after formal study): 21 | Rivermead score (subject with PCS [8]; session 6 2nd Open: open-label 4AP 10 mg twice daily, 9 weeks after formal study): 7 | AIMS, active medication phase compared to placebo and washout conditions (subject with PCS [9]; blinded phase, 4-AP 10 mg twice daily for one week): improvement | AIMS Subscale (subject with PCS [9]; session 4 Active: blinded, one week on 4-AP 10 mg twice daily, placebo 15.0, washout 9.5): 4.5 | Overall neuro-optometric functioning (subject with PCS [10]): unexpectedly improved | Symptoms of EA2 (including downbeat nystagmus) [11]: both relieved and prevented
